Experimental data reported in US20260274807A1 (University of Health Sciences and Pharmacy in St. Louis, priority 2023, published 2026).

Legend:
ERRα = biological target: T1, ERRα (Homo sapiens, UniProt P11474); assay: ERRE luciferase reporter assay in HEK293 cells transfected with pcDNA3.1 ERRα; type: cell-based; settings: HEK293 cells transfected with ERRE reporter construct and pcDNA3.1 ERRα; compound for 24 hours; luciferase activity
T1 construct: expressed in transfected cells; host or cells: HEK293
T1 sequence (P11474 1-423): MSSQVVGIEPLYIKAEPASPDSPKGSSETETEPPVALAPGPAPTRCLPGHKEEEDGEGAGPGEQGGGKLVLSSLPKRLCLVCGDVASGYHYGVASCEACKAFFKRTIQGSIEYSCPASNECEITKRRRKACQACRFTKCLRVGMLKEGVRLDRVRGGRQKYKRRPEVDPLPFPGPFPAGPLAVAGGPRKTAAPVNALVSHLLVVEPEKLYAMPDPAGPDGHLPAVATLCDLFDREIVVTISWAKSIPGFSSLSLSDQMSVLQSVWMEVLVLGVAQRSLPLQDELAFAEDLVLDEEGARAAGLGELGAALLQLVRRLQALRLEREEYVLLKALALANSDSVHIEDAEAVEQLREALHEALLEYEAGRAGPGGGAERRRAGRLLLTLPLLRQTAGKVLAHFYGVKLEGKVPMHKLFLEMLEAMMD

ERRγ = biological target: T2, ERRγ (Homo sapiens, UniProt P62508); assay: ERRE luciferase reporter assay in HEK293 cells transfected with pcDNA3.1 ERRγ; type: cell-based; settings: HEK293 cells transfected with ERRE reporter construct and pcDNA3.1 ERRγ; compound for 24 hours; luciferase activity
T2 construct: expressed in transfected cells; host or cells: HEK293
T2 sequence (P62508 1-458): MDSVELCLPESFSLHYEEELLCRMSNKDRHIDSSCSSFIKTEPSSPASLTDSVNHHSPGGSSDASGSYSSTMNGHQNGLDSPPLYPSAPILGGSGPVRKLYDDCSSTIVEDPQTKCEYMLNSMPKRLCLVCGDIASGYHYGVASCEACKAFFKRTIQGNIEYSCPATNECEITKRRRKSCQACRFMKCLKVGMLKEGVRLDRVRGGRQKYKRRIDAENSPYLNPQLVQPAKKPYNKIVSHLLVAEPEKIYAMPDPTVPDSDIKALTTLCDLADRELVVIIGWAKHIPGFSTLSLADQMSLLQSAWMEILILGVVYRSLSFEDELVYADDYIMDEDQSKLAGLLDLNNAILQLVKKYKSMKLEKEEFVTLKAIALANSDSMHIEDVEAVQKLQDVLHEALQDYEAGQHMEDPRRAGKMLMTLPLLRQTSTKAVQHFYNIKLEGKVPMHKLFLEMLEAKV

**Q.** With `FC(F)(F)c1cccc(-c2nnc(-c3cccnc3Cl)s2)c1` [Entry 1074, 2-(2-chloropyridin-3-yl)-5-(3-(trifluoromethyl)phenyl)-1,3,4-thiadiazole] as the molecule, how does the EC50 (ERRα) read?
**A.** 1 to 5 µM

**Q.** And the EC50 (ERRγ)?
**A.** 1 to 5 µM

**Q.** How did the EC50 (ERRα) turn out when `Cc1ccc(-c2nnc(-c3scnc3C)s2)cc1` [Entry 1080, 2-(4-methylthiazol-5-yl)-5-(p-tolyl)-1,3,4-thiadiazole] was run?
**A.** < 1 µM

**Q.** What about the EC50 (ERRγ) of the same molecule?
**A.** < 1 µM

**Q.** How did the EC50 (ERRα) turn out when `Cc1ccc(-c2nnc(-c3cncs3)s2)cc1` [Entry 1082, 2-(thiazol-5-yl)-5-(p-tolyl)-1,3,4-thiadiazole] was run?
**A.** < 1 µM

**Q.** What about the EC50 (ERRγ) of the same molecule?
**A.** < 1 µM
